Test results taken from US10981932B2, “Macrocyclic indole derivatives” (Bayer Aktiengesellschaft, priority 2016, dated 2021).
Structures can show the parent of a compound that is named as a salt. Where two headings read alike, the source gives them in different places.

How the values were obtained:
SUDHL5 [1] = experiment: Induction of cytotoxicity (CellTiter-Glo, 5 h), SUDHL5
A2780 = experiment: Anti-proliferative effect (CellTiter-Glo, 72 h), A2780; format: cell-based; settings: A2780 cells, median, read-out: IC50 antiproliferation assay A2780 [M] (median)
Procedure, shortened: (§1)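 CTG luminescence read-out after 72 h compound exposure, 37 °C, humidified. Time-zero reference plate read at plating.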

SUDHL5 [2] = experiment: Anti-proliferative effect (CellTiter-Glo, 72 h), SUDHL5; format: cell-based; settings: SUDHL5 cells, antiproliferation, median, read-out: Antiproli SUDHL5 [M] (median)
Procedure, shortened: as §1

SUDHL5 [3] = experiment: Induction of caspase-3/7 activity (Caspase-Glo 3/7), SUDHL5; format: cell-based; settings: caspase-3/7 induction, SUDHL5 cells, 3 h treatment, median
Procedure, shortened: (§2)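 Caspase-Glo 3/7 luminescence, 3 h compound exposure, 37 °C, humidified. Minus medium-only blank. EC50 fit: C0=1, plateau = reference max induction.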

MCL-1 = MCL-1 (Homo sapiens, UniProt Q07820); experiment: Protein-protein interaction assay MCL-1/Noxa BH3 peptide (MCL-1 assay), TR-FRET; format: binding; settings: MBP-MCL-1 / Noxa BH3-derived peptide, median
Procedure, shortened: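 Displacement of the biotinylated Noxa BH3 peptide from MBP-tagged human MCL-1 (1 nM) is detected by time-resolved FRET. Compounds are tested in duplicate across eleven concentrations up to 20 μM, incubated 1 h at 22 °C and overnight at 4 °C, and IC50 is fitted with a four-parameter equation.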

SUDHL10 [4] = experiment: Induction of cytotoxicity (CellTiter-Glo, 5 h), SUDHL10
SUDHL10 [5] = experiment: Induction of caspase-3/7 activity (Caspase-Glo 3/7), SUDHL10; format: cell-based; settings: caspase-3/7 induction, SUDHL10 cells, 3 h treatment, median
Procedure, shortened: as §2

SUDHL10 [6] = experiment: Anti-proliferative effect (CellTiter-Glo, 72 h), SUDHL10; format: cell-based; settings: SUDHL10 cells, antiproliferation, median, read-out: Antiproli SUDHL10 [M] (median)
Procedure, shortened: as §1

[7] = read-out: Cytotox SUDHL5 [M] (median), SUDHL5 cells, cytotoxicity induction, CellTiter-Glo, 5 h incubation, median
[8] = read-out: Cytotox SUDHL10 [M] (median), SUDHL10 cells, cytotoxicity induction, CellTiter-Glo, 5 h incubation, median
[9] = Homo sapiens, SU-DHL-5, 5 h, read-out: Cytotox SUDHL5 [M] (median), SUDHL5 cells, cytotoxicity induction, CellTiter-Glo, 5 h incubation, median
[10] = Homo sapiens, SU-DHL-5, 72 h, 72 h incubation
[11] = Homo sapiens, SU-DHL10, 5 h, read-out: Cytotox SUDHL10 [M] (median), SUDHL10 cells, cytotoxicity induction, CellTiter-Glo, 5 h incubation, median
[12] = Homo sapiens, SU-DHL10, 72 h, 72 h incubation

Sequence of MCL-1 (Q07820 whole entry): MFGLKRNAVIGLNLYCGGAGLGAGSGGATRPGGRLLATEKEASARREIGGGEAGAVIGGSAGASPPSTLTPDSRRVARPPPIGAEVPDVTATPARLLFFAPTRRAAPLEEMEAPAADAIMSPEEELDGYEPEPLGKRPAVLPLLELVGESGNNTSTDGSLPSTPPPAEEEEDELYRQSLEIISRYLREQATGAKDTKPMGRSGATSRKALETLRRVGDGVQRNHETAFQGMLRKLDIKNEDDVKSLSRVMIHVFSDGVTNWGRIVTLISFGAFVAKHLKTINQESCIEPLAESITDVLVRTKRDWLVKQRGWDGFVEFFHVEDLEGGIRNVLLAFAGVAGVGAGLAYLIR

Compound	IC50 (SUDHL5 [1]; [7]) [M]	IC50 (A2780) [M]	IC50 (SUDHL5 [2]; 72 h incubation) [M]	EC50 (SUDHL5 [3]) [µM]	IC50 (MCL-1) [µM]	IC50 (SUDHL10 [4]; [8]) [M]	EC50 (SUDHL10 [5]) [µM]	IC50 (SUDHL10 [6]; 72 h incubation) [M]	IC50 (SUDHL5 [1]; [9]) [M]	IC50 (A2780; Homo sapiens, A2780, 72 h) [M]	IC50 (SUDHL5 [2]; [10]) [M]	EC50 (SUDHL5 [3]; Homo sapiens, SU-DHL-5, 3 h) [µM]	IC50 (SUDHL10 [4]; [11]) [M]	EC50 (SUDHL10 [5]; Homo sapiens, SU-DHL10, 3 h) [µM]	IC50 (SUDHL10 [6]; [12]) [M]	IC50 (SUDHL5 [1]; Homo sapiens, SU-DHL-5, 5 h, read-out: Cytotox SUDHL5 [M] (median), SUDHL5 cells, cytotoxicity induction, CellTiter-Glo, 5 h, median)	IC50 (SUDHL5 [2]; Homo sapiens, SU-DHL-5, 72 h, 72 h) [M]	IC50 (SUDHL10 [4]; Homo sapiens, SU-DHL10, 5 h, read-out: Cytotox SUDHL10 [M] (median), SUDHL10 cells, cytotoxicity induction, CellTiter-Glo, 5 h, median)	IC50 (SUDHL10 [6]; Homo sapiens, SU-DHL10, 72 h, 72 h) [M]
Cc1cc2c(OCCCc3c(C(=O)O)n4c5c(cccc35)-c3c(C)nn(C)c3COCCCC4)cccc2cc1F (single isomer, unassigned; enantiomer 2) [Example 051, 7-{3-[(6-fluoro-7-methylnaphthalen-1-yl)oxy]propyl}-1,3-dimethyl-1,10,11,12,13,15-hexahydropyrazolo[4′,3′:9,10][1,6]oxazacycloundecino[8,7,6-hi]indole-8-carboxylic acid-N-ethylethanamine Salt (Enantiomer 2)]	3e-05	1.53e-05	8.91e-06	> 33	0.0737	2.02e-05	> 33	4.39e-06	–	–	–	–	–	–	–	–	–	–	–
O=C(O)c1c(CCCOc2cccc3ccccc23)c2cccc3c2n1CCCCOCc1nn2c(c1-3)COCC2 (racemic) [Example 250, (rac)-1-[3-(naphthalen-1-yloxy)propyl]-4,5,6,7,12,13-hexahydro-9H,15H-[1,4]oxazino[4″,3″:1′,5′]pyrazolo[4′,3′:9,10][1,6]oxazacycloundecino[8,7,6-hi]indole-2-carboxylic Acid]	–	> 3.3e-05	–	–	0.00788	–	–	–	1.33e-05	2.29e-05	9.3e-06	10.9	2.18e-05	22	9.7e-06	–	–	–	–
CN1CCCn2c(C(=O)O)c(CCCOc3cccc4ccccc34)c3cccc(c32)-c2c(nn3c2OCCC3)C1 (racemic) [Example 360, (rac)-7-methyl-1-[3-(naphthalen-1-yloxy)propyl]-5,6,7,8,12,13-hexahydro-4H,11H-[1,3]oxazino[3″,2″:1′,5′]pyrazolo[3′,4′:7,8][1,5]diazecino[9,10,1-hi]indole-2-carboxylic Acid]	–	–	–	–	0.0198	–	–	–	–	> 3.3e-05	–	32.6	–	> 33	–	> 3.3e-05	2.12e-05	> 3.3e-05	1.44e-05
CCCc1nn(C)c2c1-c1c(C)ccc3c(CCCOc4cccc5ccccc45)c(C(=O)O)n(c13)CCCN(C)C2 (single isomer, unassigned; enantiomer 2) [Example 197, 7,9,12-trimethyl-1-[3-(naphthalen-1-yloxy)propyl]-1-propyl-4,5,6,7,8,9-hexahydropyrazolo[3′,4′:7,8][1,5]diazecino[9,10,1-hi]indole-2-carboxylic acid-N-ethylethanamine Salt (Enantiomer 2)]	1.93e-05	1.49e-05	1.78e-05	28.7	0.104	1.55e-05	> 33	8.15e-06	–	–	–	–	–	–	–	–	–	–	–
COCc1c2c(nn1C)COCCCCn1c(C(=O)O)c(CCCOc3cccc4c3CCCC4)c3cccc-2c31 (racemic) [Example 105, (rac)-3-(methoxymethyl)-2-methyl-7-[3-(5,6,7,8-tetrahydronaphthalen-1-yloxy)propyl]-2,10,11,12,13,15-hexahydropyrazolo[4′,3′:9,10][1,6]oxazacycloundecino[8,7,6-hi]indole-8-carboxylic Acid]	–	–	–	–	0.00268	–	–	–	7.19e-06	1.49e-05	1.01e-05	8.27	1.92e-05	23.9	9.89e-06	–	–	–	–
CCCc1nn(C)c2c1-c1c(C)ccc3c(CCCOc4cccc5ccccc45)c(C(=O)O)n(c13)CCCCOC2 (single isomer, unassigned; enantiomer 2) [Example 189, 1,4-dimethyl-7-[3-(naphthalen-1-yloxy)propyl]-3-propyl-1,10,11,12,13,15-hexahydropyrazolo[4′3′:9,10][1,6]oxazacycloundecino[8,7,6-hi]indole-8-caboxylic acid-N-ethylethanamine Salt (Enantiomer 2)]	2.86e-05	1.78e-05	1.09e-05	> 33	0.142	> 3.3e-05	> 33	2.01e-05	–	–	–	–	–	–	–	–	–	–	–
Cc1ccc2c(C(C)CCOc3cccc4ccccc34)c(C(=O)O)n3c2c1-c1c(C)nn(C)c1COCCCC3 (single isomer, unassigned) [Example 258, 1,3,4-trimethyl-7-[4-(naphthalen-1-yloxy)butan-2-yl]-1,10,11,12,13,15-hexahydropyrazolo[4′,3′:9,10][1,6]oxazacycloundecino[8,7,6-hi]indole-8-carboxylic Acid]	> 3.3e-05	2.3e-05	1.92e-05	> 33	12	> 3.3e-05	> 33	1.16e-05	–	–	–	–	–	–	–	–	–	–	–
Cc1ccc2c(CCCOc3cccc4ccccc34)c(C(=O)O)n3c2c1-c1c(C)nn(C)c1COCCC3 (single isomer, unassigned; enantiomer 1) [Example 025, (+)-9,11,12-trimethyl-1-[3-(naphthalen-1-yloxy)propyl]-5,6,8,9-tetrahydro-4H-pyrazolo[4′,3′:8,9][1,5]oxazecino[7,6,5-hi]indole-2-carboxylic acid-N-ethylethanamine Salt (Enantiomer 1)]	2.98e-06	> 3.3e-05	–	3.04	0.00184	8.77e-06	–	–	–	3.04e-05	6.44e-06	–	–	11.1	4.29e-06	–	–	–	–
CCCc1nn(C)c2c1-c1c(C)ccc3c(CCCOc4cccc5ccccc45)c(C(=O)O)n(c13)CCCN(C)C2 (racemic) [Example 193, (rac)-7,9,12-trimethyl-1-[3-(naphthalen-1-yloxy)propyl]-1-propyl-4,5,6,7,8,9-hexahydropyrazolo[3′,4′:7,8][1,5]diazecino[9,10,1-hi]indole-2-carboxylic Acid]	–	–	–	–	0.00233	–	–	–	2.3e-06	1.9e-05	4.45e-06	2.47	7.65e-06	8.35	7.14e-06	–	–	–	–
Cc1ccc2c(C(C)CCOc3cccc4ccccc34)c(C(=O)O)n3c2c1-c1c(C)nn(C)c1COCCCC3 (single isomer, unassigned) [Example 257, 1,3,4-trimethyl-7-[4-(naphthalen-1-yloxy)butan-2-yl]-1,10,11,12,13,15-hexahydropyrazolo[4′,3′:9,10][1,6]oxazacycloundecino[8,7,6-hi]indole-carboxylic Acid]	> 3.3e-05	–	2e-05	> 33	0.669	> 3.3e-05	> 33	8.12e-06	–	1.9e-05	–	–	–	–	–	–	–	–	–
CCNCc1nn(C)c2c1-c1cccc3c(CCCOc4cccc5ccccc45)c(C(=O)O)n(c13)CCCCOC2 (racemic) [Example 156, (rac)-3-[(ethylamino)methyl]-1-methyl-7-[3-(naphthalen-1-yloxy)propyl]-1,10,11,12,13,15-hexahydropyrazolo[4′,3′:9,10][1,6]oxazacycloundecino[8,7,6-hi]indole-8-carboxylic Acid]	–	–	–	–	0.152	–	–	–	> 3.3e-05	> 3.3e-05	> 3.3e-05	> 33	> 3.3e-05	> 33	2.23e-05	–	–	–	–
